Values of other authors in article PMC5613053 (Investigational New Drugs, 2017).

What was measured:
MV4–11 cells = conditions: read-out: Concentration inhibiting growth of MV4–11 cells; cited from earlier work
MV4–11-luc cells = tested on: MV4–11-luc cells; set-up: method as in PMID 24046014; conditions: maximum tolerated dose; cited from earlier work

SMILES: CC1(COc2ccc3c(c2)ncn3-c2ccc3cccc(N4CCC(N)CC4)c3n2)COC1 [crenolanib]
- IC50 (MV4–11 cells): 1.3 nM
- Efficacy in xenograft model (MV4–11-luc cells): limited efficacy
